From ChEMBL document CHEMBL3813632, “Thiazolo[3,2-a]benzimidazol-3(2H)-one derivatives: Structure-activity relationships of selective nucleotide pyrophosphatase/phosphodiesterase1 (NPP1) inhibitors” (Bioorg Med Chem, 2016)
The source made the active and inactive calls. No cut-off for these calls is given here.

Columns and labels:
[1] = biological target: T1, Ectonucleotide pyrophosphatase/phosphodiesterase family member 1 (Homo sapiens, UniProt P22413); assay: Inhibition of human recombinant NPP1 expressed in insect SF9 cells using ATP as substrate preincubated with substrate followed by protein addition and subsequent incubation for 30 mins by capillary electrophoresis
T1 sequence (P22413 whole entry): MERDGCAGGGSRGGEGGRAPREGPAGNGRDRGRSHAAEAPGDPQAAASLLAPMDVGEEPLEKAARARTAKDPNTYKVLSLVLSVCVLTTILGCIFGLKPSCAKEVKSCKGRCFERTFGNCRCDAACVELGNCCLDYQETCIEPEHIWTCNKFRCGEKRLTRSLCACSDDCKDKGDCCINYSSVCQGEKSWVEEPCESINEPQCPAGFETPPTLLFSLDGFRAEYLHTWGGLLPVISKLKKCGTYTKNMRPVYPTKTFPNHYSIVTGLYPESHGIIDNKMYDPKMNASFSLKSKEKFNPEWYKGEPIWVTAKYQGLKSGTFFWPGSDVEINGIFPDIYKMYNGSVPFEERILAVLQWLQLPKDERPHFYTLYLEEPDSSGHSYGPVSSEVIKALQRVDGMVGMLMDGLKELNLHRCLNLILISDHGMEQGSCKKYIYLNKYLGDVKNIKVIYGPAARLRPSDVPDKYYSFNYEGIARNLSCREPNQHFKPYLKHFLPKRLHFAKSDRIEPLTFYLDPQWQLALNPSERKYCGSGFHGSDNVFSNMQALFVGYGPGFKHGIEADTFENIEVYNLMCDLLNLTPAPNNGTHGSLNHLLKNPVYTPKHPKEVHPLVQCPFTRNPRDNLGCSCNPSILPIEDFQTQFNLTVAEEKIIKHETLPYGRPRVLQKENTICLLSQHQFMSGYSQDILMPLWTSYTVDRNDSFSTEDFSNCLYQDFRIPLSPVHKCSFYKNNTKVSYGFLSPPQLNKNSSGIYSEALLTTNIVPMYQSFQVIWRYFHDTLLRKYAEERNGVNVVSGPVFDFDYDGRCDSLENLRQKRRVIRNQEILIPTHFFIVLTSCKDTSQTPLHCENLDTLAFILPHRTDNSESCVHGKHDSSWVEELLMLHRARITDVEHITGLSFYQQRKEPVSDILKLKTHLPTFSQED

[2] = biological target: T2, Ectonucleoside triphosphate diphosphohydrolase 2 (Homo sapiens) (UniProt Q9Y5L3); assay: Inhibition of human recombinant NTPDase2 expressed in CHO cells using ATP as substrate at 10 to 1000 uM preincubated with substrate followed by protein addition and subsequent incubation for 30 mins by capillary electrophoresis
T2 sequence (whole entry): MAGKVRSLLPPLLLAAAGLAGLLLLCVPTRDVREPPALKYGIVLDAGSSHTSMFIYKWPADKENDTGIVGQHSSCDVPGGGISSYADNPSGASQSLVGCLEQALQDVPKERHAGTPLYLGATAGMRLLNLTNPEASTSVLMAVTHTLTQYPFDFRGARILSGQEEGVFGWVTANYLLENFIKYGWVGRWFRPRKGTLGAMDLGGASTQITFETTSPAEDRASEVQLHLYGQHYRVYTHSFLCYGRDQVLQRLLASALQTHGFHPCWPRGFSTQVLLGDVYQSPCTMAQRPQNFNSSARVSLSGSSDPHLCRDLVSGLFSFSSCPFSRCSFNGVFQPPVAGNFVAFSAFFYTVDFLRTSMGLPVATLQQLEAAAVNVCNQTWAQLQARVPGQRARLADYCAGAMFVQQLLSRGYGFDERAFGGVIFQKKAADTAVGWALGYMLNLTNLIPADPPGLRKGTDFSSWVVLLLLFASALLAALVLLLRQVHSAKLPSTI

[3] = biological target: T3, Ectonucleotide pyrophosphatase/phosphodiesterase family member 3 (Homo sapiens) (UniProt O14638); assay: Inhibition of human recombinant NPP3 expressed in insect SF9 cells using ATP as substrate at >100 uM preincubated with substrate followed by protein addition and subsequent incubation for 60 mins by capillary electrophoresis
T3 sequence (whole entry): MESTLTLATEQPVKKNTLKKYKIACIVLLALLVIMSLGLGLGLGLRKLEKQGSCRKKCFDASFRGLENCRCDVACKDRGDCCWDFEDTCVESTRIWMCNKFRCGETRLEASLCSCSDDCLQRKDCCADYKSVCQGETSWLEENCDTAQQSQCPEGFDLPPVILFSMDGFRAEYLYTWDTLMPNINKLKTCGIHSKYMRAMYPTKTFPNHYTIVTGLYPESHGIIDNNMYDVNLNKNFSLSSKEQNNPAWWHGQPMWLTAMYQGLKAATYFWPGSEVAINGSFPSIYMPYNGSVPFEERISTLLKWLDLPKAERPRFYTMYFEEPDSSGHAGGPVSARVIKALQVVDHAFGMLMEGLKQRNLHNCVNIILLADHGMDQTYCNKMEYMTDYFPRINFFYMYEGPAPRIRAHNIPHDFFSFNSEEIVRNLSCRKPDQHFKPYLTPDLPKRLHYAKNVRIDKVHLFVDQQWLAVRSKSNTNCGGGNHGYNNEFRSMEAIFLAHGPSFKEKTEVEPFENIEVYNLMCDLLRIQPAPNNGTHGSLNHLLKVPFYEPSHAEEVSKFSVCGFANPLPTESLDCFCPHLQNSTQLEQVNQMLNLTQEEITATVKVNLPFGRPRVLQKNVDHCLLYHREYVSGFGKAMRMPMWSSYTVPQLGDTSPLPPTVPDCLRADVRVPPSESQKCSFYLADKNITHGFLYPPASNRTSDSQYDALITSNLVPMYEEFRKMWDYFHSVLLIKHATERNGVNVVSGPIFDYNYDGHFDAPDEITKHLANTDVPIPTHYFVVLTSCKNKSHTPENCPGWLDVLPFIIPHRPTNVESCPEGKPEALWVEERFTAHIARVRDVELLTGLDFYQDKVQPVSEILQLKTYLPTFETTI

[4] = biological target: 5'-nucleotidase (Homo sapiens) (UniProt P21589); assay: Inhibition of human recombinant Ecto-5'-nucleotidase expressed in CHO cells using AMP as substrate at >100 uM preincubated with substrate followed by protein addition and subsequent incubation for 30 mins by capillary electrophoresis
[5] = Drug metabolism of the compound in MgCl2/CaCl2/CHES buffer assessed as 2-hydroxy-3-(5-iodofuran-2-yl)-1-(2-thioxo-2,3-dihydro-1H-benzo[d]imidazol-1-yl)prop-2-en-1-one metabolite formation at pH 9 after 24 hrs by LC-MS analysis; type: physicochemical; conditions: pH 9, 24 h
[6] = Retention time of the compound in MgCl2/CaCl2/CHES buffer at pH 9 by LC-MS analysis; type: physicochemical
Homo sapiens [7] = species on record: Homo sapiens; assay: Selectivity ratio of Ki for human recombinant soluble NTPDase1 to Ki for human recombinant NPP1
Homo sapiens [8] = species on record: Homo sapiens; assay: Selectivity ratio of Ki for human recombinant soluble NTPDase2 to Ki for human recombinant NPP1
Homo sapiens [9] = species on record: Homo sapiens; assay: Selectivity ratio of Ki for human recombinant soluble NTPDase3 to Ki for human recombinant NPP1
Homo sapiens [10] = species on record: Homo sapiens; assay: Selectivity ratio of Ki for human recombinant NPP3 to Ki for human recombinant NPP1

5'-nucleotidase (Homo sapiens), sequence (P21589 whole entry): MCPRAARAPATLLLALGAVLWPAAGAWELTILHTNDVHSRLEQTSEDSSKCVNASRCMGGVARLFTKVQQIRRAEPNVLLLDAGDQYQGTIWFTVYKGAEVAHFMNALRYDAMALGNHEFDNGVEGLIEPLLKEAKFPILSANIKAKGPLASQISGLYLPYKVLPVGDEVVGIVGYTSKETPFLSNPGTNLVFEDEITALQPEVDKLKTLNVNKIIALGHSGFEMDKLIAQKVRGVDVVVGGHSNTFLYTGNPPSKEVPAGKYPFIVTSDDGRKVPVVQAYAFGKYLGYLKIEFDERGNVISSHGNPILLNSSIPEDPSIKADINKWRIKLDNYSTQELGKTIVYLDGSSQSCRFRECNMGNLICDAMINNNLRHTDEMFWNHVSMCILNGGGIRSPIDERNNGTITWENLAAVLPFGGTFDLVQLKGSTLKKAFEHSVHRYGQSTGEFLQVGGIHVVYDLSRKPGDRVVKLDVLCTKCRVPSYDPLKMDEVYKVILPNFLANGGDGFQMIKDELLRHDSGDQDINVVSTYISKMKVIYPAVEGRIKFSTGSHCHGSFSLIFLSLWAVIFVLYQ

For `O=c1/c(=C/c2ccc(I)o2)sc2nc3ccccc3n12`, the Ki [1] was 467 nM, the inhibition [2] was “inactive” and the inhibition [3] was “Active”. The inhibition [4] was “Active”, the Drug metabolism [5] was “metabolite_detected” and the Retention_time [6] was 8.2 min. It also gave a Ratio Ki (Homo sapiens [7]) of 1000, a Ratio Ki (Homo sapiens [8]) of 1000 and a Ratio Ki (Homo sapiens [9]) of 1000. It also gave a Ratio Ki (Homo sapiens [10]) of 1000.
